Entries after “also recorded” stand apart in the source; their conditions may differ.

The target in one test is T1, Nkx2.5/DNA complex (Homo sapiens, UniProt P52952).
T1 construct: human Nkx2.5 DBD (the homeodomain); made in house
The test can be described thus: BFPX crosslinking of Nkx2.5/DNA complexes, SDS PAGE. The format is biochemical. Conditions: denaturing SDS PAGE; probes with UV. The procedure: FIG. 12H depicts BFPX crosslinking of Nkx2.5/DNA complexes. […] The various treatment combinations were list above the gel. The reactions were then analyzed by SDS PAGE under denaturing condition as described in FIG. 12D.

The next test has as its target T2, NFAT1/DNA complex (Homo sapiens, UniProt Q13469).
T2 construct: human NFAT1 protein (residue 399-676, NFAT1-DBD)
T2 sequence (Q13469 399-676): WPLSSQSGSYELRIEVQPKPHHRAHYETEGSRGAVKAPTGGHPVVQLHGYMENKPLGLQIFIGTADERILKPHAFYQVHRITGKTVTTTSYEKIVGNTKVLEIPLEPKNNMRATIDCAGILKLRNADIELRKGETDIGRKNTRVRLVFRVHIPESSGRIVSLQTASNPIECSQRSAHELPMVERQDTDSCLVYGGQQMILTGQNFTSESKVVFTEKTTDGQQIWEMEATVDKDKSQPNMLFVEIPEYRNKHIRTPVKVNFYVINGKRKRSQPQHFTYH
The experiment in a line: Identification of covalent attachment site on crosslinked NFAT1 (trypsin digestion, Edman sequencing). Conditions: for peptide identified by Edman sequencing of the DNA-peptide conjugate: trypsin digested crosslinked NFAT1/DNA complex. On the procedure: FIG. 9A-FIG. 9D depicts characterization of BFPX-mediated crosslinking reaction, to identify the covalent attachment site on the protein. (FIG. 9A) A large scale of crosslinking reaction corresponding to lane 11 of FIG. 7 was carried out. The reaction mixture was separated on FPLC using a mono-Q column (yellow trace: conductance, red trace: salt gradient (A:10 mM Hepes pH 7.4; B: 10 mM Hepes 7.4, IM NaCl), blue trace: UV254 nm absorbance). […] The flow-through contains only free NFAT (lane 4), peak I contains predominantly the complex (lane 5) and peak II contains predominantly free DNA (lane 6). (FIG. 9C) The purified NFAT/DNA complex was digested with trypsin and the DNA-peptide conjugate was purified and sequenced by Edman degradation: Top panel, a schematic picture of the DNA binding domain of human NFAT1 (residue 399-676) used in the study, the sequence of loop 478-491, RITGKTVTTTSYEK (SEQ ID NO.: 1), is shown above; Middle panel: a schematic picture of the covalently capture NFAT/DNA complex, the DNA sequence (5′-[…]-3′ (SEQ ID NO: 2) and its complementary strand 3′-[…]-5′ (SEQ ID NO: 3)) used in the study is shown with the two potential probe (yellow wedge and start) binding site (TpA) indicated). The underlined region is the NFAT binding motif. Bottom panel: Edman sequencing results ([…], T480, and G481) identify the loop of 478-491, RITGKTVTTTSYEK (SEQ ID NO: 1), as the attachment site. […]
FIG. 13A depicts characterization of the BFPX-mediated crosslinking reaction: Identification of covalent attachment sites on the crosslinked proteins. […] The reaction mixtures were separated on FPLC using a mono-Q column (yellow trace: conductance, red trace: salt gradient (buffer A:10 mM Hepes pH 7.4; buffer B: 10 mM Hepes 7.4, 1 M NaCl), blue trace: UV254 nm absorbance). […]
We analyzed the covalent attachment sites on the NFAT/DNA complexes crosslinked by SPB-AAD and SPB-PEG4-AAD using a work flow shown in FIG. 13A. […] The sequencing results were generally noisy with multiple amino acids detected in each cycle. […]

T1 sequence (P52952 138-197 limits assumed, one chain of several): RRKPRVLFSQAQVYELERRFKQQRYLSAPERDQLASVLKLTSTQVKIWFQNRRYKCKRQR

As to `C#CCCC1(CCNC(=O)CCCOc2c3occc3cc3ccc(=O)oc23)N=N1` [SPB-AAD, N-(2-(3-(but-3-yn-1-yl)-3H-diazirin-3-yl)ethyl)-4-((7-oxo-7H-furo[3,2-g]chromen-9-yl)oxy)butanamide], the “crosslinking of the Nkx2.5/DNA complex” value on Nkx2.5/DNA complex is recorded as “significant crosslinking of the Nkx2.5/DNA complex”. Moreover, on NFAT1/DNA complex, the “peptide identified by Edman sequencing of the DNA-peptide conjugate” value was “IVGN and Ile, Thr, and Gly”.

For the compound `C#CCCC1(CCNC(=O)CCOCCOCCOCCOCCNC(=O)CCCOc2c3occc3cc3ccc(=O)oc23)N=N1` [SPB-PEG4-AAD, N-(2-(3-(but-3-yn-1-yl)-3H-diazirin-3-yl)ethyl)-1-(4-((7-oxo-7H-furo[3,2-g]chromen-9-yl)oxy)butanamido)-3,6,9,12-tetraoxapentadecan-15-amide], at Nkx2.5/DNA complex, the “crosslinking of the Nkx2.5/DNA complex” value is on record as “significant crosslinking of the Nkx2.5/DNA complex”. At NFAT1/DNA complex (human NFAT1 DBD residue 399-676), the “covalent attachment site on NFAT1” value was “residues 434 and 452; also recorded: loop of 434-452”. In addition, at NFAT1/DNA complex, the “peptide identified by Edman sequencing of the DNA-peptide conjugate” value is listed as “APTGGH”.

For the origin of these results see patent US20250388597A1, “BIFUNCTIONAL PHOTOCROSSLINKING PROBES FOR COVALENT CAPTURE OF PROTEIN-NUCLEIC ACID COMPLEXES IN CELLS” (UNIVERSITY OF SOUTHERN CALIFORNIA, priority 2022, published 2025).
